Reference: patent US9289443B2, “Pharmaceutical composition and method for preventing or treating hepatitis C” (INDUSTRIAL TECHNOLOGY RESEARCH INSTITUTE, priority 2010, dated 2016)
Where two headings read alike, the source gives them in different places.

Legend:
[1] = Cell cytotoxic test (MTT) on Huh-luc/neo-ET cells; type: cell-based; conditions: human, concentration for 50% cell kill, two-day culture
Procedure: (§1) Cell Cytotoxic Test on Huh-luc/noe-ET Cells
(§2) Huh-luc/neo-ET cells with a concentration of 2.5×10^4 cells/100 μl/well were seeded into a 96 well culture plate (Corning Incorporation COSTAR, 3599) and placed into a cell incubator for culturing.
(§3) The next day, the oleanolic acid derivatives as listed in the following Tables 1 and 2 were diluted with a DMEM culture medium to the concentrations of 28.73 μg/ml, 9.57 μg/ml, 3.19 μg/ml, 1.06 μg/ml, 0.35 μg/ml, 0.11 μg/ml, 0.039 μg/ml and 0.013 μg/ml, respectively, or diluted to the concentrations of 114.92 μg/ml, 38.33 μg/ml, 12.77 μg/ml, 4.25 μg/ml, 1.42 μg/ml, 0.46 μg/ml, 0.16 μg/ml and 0.057 μg/ml, respectively. The initial medium in the 96 well culture plate was sucked out by a vacuum pump (DOAT-704AA) without removing the cells. Then, the culture medium containing the oleanolic acid derivatives were added into the 96 well culture plate containing 100 μl/well of the cells as the experiment groups, while the untreated culture mediums were added to the cells as a control.
(§4) After a two-day culture, the medium was removed and each well containing cells was washed by 100 μl of 1×PBS (1 mM KH2PO4, 10 mM Na2HPO4, 137 mM NaCl, 2.7 mM KCl) twice. Precipitates were recorded and PBS was removed. 50 μl of the medium containing 0.5 mg/ml of MTT (Sigma, M2128) was added into each well of the 96 well culture plate. The 96 well culture plate was placed in a CO2 culture incubator for 1 hour. Subsequently, 150 μl of DMSO (Riedel-de Haül, 60153) was added to each well of the 96 well culture plate and vortexed (KS shaker Type 670) to thoroughly mix the resulting purple precipitates. The 96 well culture plate was then placed in a continuous wave length microwell plate analysis system (Molecular Devices, SPECTRAMAX 190) to measure the absorbance of cells at a wavelength of 560 nm.
(§5) The average absorbance of the control was set as 100% of the cell survival rates (%) to calculate the cell survival rates (%) of the experiment groups with different concentrations of the oleanolic acid derivatives.
(§6) The cell survival rate was calculated by the following formula: Absorbance of the experiment group/Absorbance of the control×100%
(§7) The data of the cell survival rates for all experiment groups were plotted on an x-y graph to see the distribution. A trend line was obtained. […]

Huh-luc/neo-ET cells = experiment: Cell cytotoxic test (MTT) on Huh-luc/neo-ET cells; type: cell-based; conditions: concentration for 15% cell kill, two-day culture
Procedure: as §1, §2, §3, §4, §5, §6, §7

[2] = system: HCV replicon system (Huh-luc/neo-ET cell carrying I389luc-ubi-NS3-3'/ET); experiment: Inhibition of the HCV replication by determining the firefly luciferase activity (HCV replicon system); type: cell-based, Hepatitis C virus; conditions: for EW (CC50/IC50): ratio of CC50/IC50
Excerpt: HCV replicon system was used to test the effects of compounds on the treatment and prevention of hepatitis C. The HCV replicon system has been acknowledged as a screening tool for new drugs (Lohmann, V. et al., 1999, Replication of subgenomic hepatitis C virus RNAs in hepatoma cell line, Science. Vol. 285, 110-113; Bartenschlager, R. 2002, Hepatitis C virus replicons: potential role for drug development, Nature Reviews/Drug Discovery. Vol. 1, 911-916; Vorlijk, J. M. et al., 2003, A replicon-based bioassay for the measurement of interferons in patients with chronic hepatitis C, Journal of Virological Methods. 110:201-209). The HCV replicon system includes a Huh-luc/neo-ET cell carrying I389luc-ubi-NS3-3′/ET gene construct which monitors the replicative capability of the HCV. In the HCV replicon system, a firefly luciferase-ubiquitin-neomycin fusion protein is expressed by the translation of the internal ribosomal entry site (IRES) of the HCV, and the hepatitis C viral nonstructural proteins (NS3-5B), which includes protease, helicase and polymerase, are expressed by the translation of the IRES of the encephalomyocarditis virus (EMCV).
The IRES of the hepatitis C virus or the hepatitis C viral nonstructural proteins consist of a replication complex. When the replication complex is affected by the candidate compound, the activity of the HCV replicon system is inhibited and the activity of the luciferase is reduced. Accordingly, the inhibition of the HCV can be estimated by determining the activity of the intensity of the luciferase expressed by the Huh-luc/noe-ET cell.
Inhibition of the HCV Replication by Determining the Firefly Luciferase Activity
as §2
The oleanolic acid derivatives as listed in Table 2 were co-cultured with Huh-luc/neo-ET cells for 2 days. The mediums were washed twice by 100 μl of 1×PBS (1 mM KH2PO4, 10 mM Na2HPO4, 137 mM NaCl, 2.7 mM KCl) and PBS was removed. 35 μl of 1× passive lysis buffer (Promega, E1941) was added to the cells and vortexed for 10 minutes to thoroughly lysis the cells.
30 μl/well of the cell suspension was then added to a 96 well white plate (NUNC, 236108) for the measurement of the luciferase activity. Subsequently, 40 μl/well of luminescence analysis buffer and 20 μl/well of luminescence substrate (1 mM D-Luciferin) were added into the 96 well white plates. The luciferase activity (Rlu/s) was measured by a microplate luminescence meter (Berthold, MPL4) immediately.
The luciferase activity of the control was set as a standard to calculate the inhibition rates (%) of HCV of the experiment groups. The inhibition rates was calculated by the following formula: […]
After the test compounds were serial diluted and the inhibition rates of the HCV replication were determined at different concentrations, the concentration at 50% inhibition of the HCV replication (IC50) was calculated by grafit5 software (Erithacus Software).
For each experiment, 0.5 ng/ml and 0.1 ng/ml of the PEG IFN alpha-2a were used as positive controls for the IC50 test. Meanwhile, 1 μg/ml of cyclosporine A (CsA) was also used as a positive control for the IC50 test.

[3] = Hepatitis C virus, Huh-luc/neo-ET, 48 h, compound concentration 10 μM, 2 days co-culture, luciferase activity, read-out: Inhibition rate (%)
[4] = Hepatitis C virus, concentration for 50% inhibition of the HCV replication, Huh-luc/neo-ET replicon cells, read-out: IC50
[5] = Hepatitis C virus, Huh-luc/neo-ET
[6] = Hepatitis C virus, Huh-luc/neo-ET, 48 h, read-out: Inhibition rate (%)

C=CC(C)(CC/C=C(\CO)C(=O)OC1CC2(C(=O)OC3OCC(OC4CC(CO)C(O)C(OC5OC(CO)C(OC6OC(C)C(O)C(O)C6O)C(O)C5O)C4O)C(O)C3O)CCC3(C)C(=CCC4C5(C)CCC(OC6OC(CO)C(OC7OC(CO)C(O)C(OC8OCC(O)C(O)C8O)C7O)C(O)C6O)C(C)(C)C5CCC43C)C2CC1(C)C)OC1OC(C)C(O)C(O)C1O (stereo not drawn) [A27]
CC50 at 2 days [1]: 76.7 µM
CC15 (Huh-luc/neo-ET cells): 19.44 µM
inhibition at 10 µM [2, 3]: 96.9 ± 0.6%
IC50 [2, 4]: 0.72 ± 0.07 µM
EW (CC50/IC50) [2]: 106.56

C=CC(C)(O)CC/C=C(\C)C(=O)O[C@H]1[C@H](O)[C@@H](CO)OC(OC(=O)[C@]23CCC(C)(C)CC2C2=CCC4[C@@]5(C)CC[C@H](OC6O[C@H](COC7OC[C@H](O)[C@H](O)[C@H]7OC7OC[C@@H](O)[C@H](O)[C@H]7O)[C@@H](O)[C@H](O)[C@H]6O)C(C)(C)C5CC[C@@]4(C)[C@]2(C)CC3)[C@@H]1OC1OC(C)C(OC2OC[C@@H](O)[C@H](OC3OC[C@@H](O)[C@H](O)[C@H]3O)[C@H]2O)C(O)C1O (stereo partly drawn) [A25]
CC50 at 2 days [1]: 64.1 µM
CC15 (Huh-luc/neo-ET cells): 10.29 µM
inhibition at 10 µM [2, 3]: 96.5 ± 0.8%
IC50 [2, 4]: 0.36 ± 0.016 µM
EW (CC50/IC50) [2]: 178.08

C/C=C(/C)C(=O)OC1CC(C)(C)CC2C3=CCC4C5(C)CCC(OC6OC(C)C(OC7OC(C(=O)O)C(O)C(OC8OC(CO)C(O)C(O)C8OC8OC(CO)C(O)C(O)C8O)C7O)C(O)C6O)C(C)(C)C5CCC4(C)C3(C)C(OC(=O)/C=C/C=C/C=C/CCC)C(OC(C)=O)C12CO (stereo not drawn) [A15]
CC50 at 2 days [1]: > 100 µM
CC15 (Huh-luc/neo-ET cells): >100 µM
IC50 [2, 5]: 3.94 ± 0.13 µM
inhibition at 10 µM [2, 6]: 92 ± 1.6%
EW (CC50/IC50) [2]: 25.38

CC1(C)CC[C@]2(C(=O)O)CC[C@]3(C)C(=CCC4[C@@]5(C)C[C@@H](O)[C@H](OC(=O)/C=C/c6ccc(O)cc6)C(C)(C)C5CC[C@]43C)C2C1 (stereo partly drawn) [A09]
CC50 at 2 days [1]: 26.1 µM
CC15 (Huh-luc/neo-ET cells): 3.1 µM
inhibition at 10 µM [2, 3]: 13.6 ± 0.5%

CC1(C)CC[C@]2(C(=O)O)CCC3=C([C@@H](CCl)C[C@@H]4[C@@]5(C)C[C@H](O)[C@H](O)[C@@](C)(C(=O)O)[C@@H]5CC[C@@]34C)[C@@H]2C1 [A01]
CC50 at 2 days [1]: > 100 µM
CC15 (Huh-luc/neo-ET cells): >100 µM
inhibition at 10 µM [2, 3]: 41.5 ± 26.7%

CC(=O)OC1C(OC(C)=O)[C@]2(CO)C(OC(C)=O)C[C@]3(C)C(=CCC4[C@@]5(C)CC[C@H](OC6OC(C(C)=O)C(O)C(OC7OC(CO)C(O)C(O)C7O)C6O)C(C)(C)C5CC[C@]43C)C2CC1(C)C (stereo partly drawn) [A07]
CC50 at 2 days [1]: > 100 µM
CC15 (Huh-luc/neo-ET cells): >100 µM
inhibition at 10 µM [2, 3]: 10.3 ± 11.7%

CC1(C)CC[C@]2(C(=O)O)CC[C@]3(C)C(=CCC4[C@@]5(C)C[C@@H](O)[C@H](O)[C@@](C)(COC(=O)/C=C/c6ccc(O)cc6)C5CC[C@]43C)C2C1 (stereo partly drawn) [A08]
CC50 at 2 days [1]: 72 µM
CC15 (Huh-luc/neo-ET cells): 9.6 µM
inhibition at 10 µM [2, 3]: 0.4 ± 22%

CC(=O)OCC1OC(OC2COC(OC3COC(OC4C(OC5C(CO)OC(OC6CCC7(C)C(CCC8(C)C7CC=C7C9CC(C)(C)CCC9(C(=O)OC9OC(CO)C(O)C(O)C9OC9OCC(O)C(OC%10OCC(O)(CO)C%10O)C9O)C(O)CC78C)C6(C)C)C(O)C5O)OCC(O)C4O)C(O)C3O)C(O)C2O)C(OC(=O)/C=C/c2ccccc2)C(O)C1OC(C)=O (stereo not drawn) [A06]
CC50 at 2 days [1]: 25.2 µM
CC15 (Huh-luc/neo-ET cells): 8.9 µM
inhibition at 8 µM ([2]; Hepatitis C virus, Huh-luc/neo-ET, 48 h, compound concentration 8 μM, 2 days co-culture, luciferase activity, read-out: Inhibition rate (%)): 94.7 ± 1.1%
IC50 [2, 4]: 0.01 ± 0.004 µM
EW (CC50/IC50) [2]: 2520

COc1ccc(/C=C/C(=O)OC2C(C)OC(OC(=O)C34CCC(C)(C)CC3C3=CCC5[C@@]6(C)CC[C@H](OC7OC(C(=O)O)C(O)C(O)C7OC7OC(CO)C(O)C(O)C7O)[C@@](C)(C=O)C6CC[C@@]5(C)[C@]3(C)C[C@H]4O)C(OC3OC(C)C(O)C(O)C3OC3OCC(O)C(O)C3O)C2O)cc1 (stereo partly drawn) [A12]
CC50 at 2 days [1]: > 100 µM
CC15 (Huh-luc/neo-ET cells): >100 µM
IC50 [2, 5]: 0.08 ± 0.003 µM
inhibition at 10 µM [2, 6]: 95.8 ± 1%
EW (CC50/IC50) [2]: 1250

CC(=O)OC1C(OC(=O)C(C)C)C2(CO)C(CC1(C)C)C1=CCC3C4(C)CCC(OC5OC(C)C(OC6OC(C(=O)O)C(O)C(OC7OC(CO)C(O)C(O)C7OC7OC(CO)C(O)C(O)C7O)C6O)C(O)C5O)C(C)(C)C4CCC3(C)C1(C)C(O)C2O (stereo not drawn) [A13]
CC50 at 2 days [1]: 100 µM
CC15 (Huh-luc/neo-ET cells): 16.1 µM
inhibition at 15 µM ([2]; Hepatitis C virus, Huh-luc/neo-ET, 48 h, compound concentration 15 μM, 2 days co-culture, luciferase activity, read-out: Inhibition rate (%)): 93 ± 0.4%
IC50 [2, 4]: 3.31 ± 0.29 µM
EW (CC50/IC50) [2]: 30.21

CC(=O)NC1C(O[C@H]2CC[C@@]3(C)C(CC[C@]4(C)C3CC=C3C5CC(C)(C)CC[C@]5(C(=O)OC5OC(COC(=O)/C=C/c6ccccc6)C(OC6OC(CO)C(O)C(O)C6OC(C)=O)C(O)C5OC5OCC(OC6OCC(O)(CO)C6O)C(O)C5O)CC[C@]34C)C2(C)C)OC(COC2OCC(O)C(O)C2OC2OCC(O)C(O)C2O)C(OC2OC(CO)C(O)C(O)C2O)C1O (stereo partly drawn) [A24]
CC50 at 2 days [1]: 14.1 µM
CC15 (Huh-luc/neo-ET cells): 4.53 µM
inhibition at 4 µM ([2]; Hepatitis C virus, Huh-luc/neo-ET, 48 h, compound concentration 4 μM, 2 days co-culture, luciferase activity, read-out: Inhibition rate (%)): 54.8 ± 5.4%

C/C=C(\C)C(=O)OC1C(OC(C)=O)C2(C(=O)O)C(CC1(C)C)C1=CCC3C4(C)CCC(OC5OC(CO)C(O)C(OC6OC(CO)C(O)C(OC7OC(C)C(O)C(O)C7O)C6O)C5O)C(C)(C)C4CCC3(C)C1(C)C(OC(C)=O)C2OC(C)=O (stereo not drawn) [A18]
CC50 at 2 days [1]: 94.8 µM
CC15 (Huh-luc/neo-ET cells): 7.18 µM
inhibition at 10 µM [2, 3]: 45 ± 2.9%
